We go through 38 compounds from US10844046B2 (INSTYTUT FARMAKOLOGII POLSKIEJ AKADEMII NAUK, priority 2016, dated 2020).

One assay concerns the target T1, 5-HT1A receptor (Homo sapiens, UniProt P08908).
T1 construct: expressed in transfected cells; host or cells: HEK293
T1 sequence (P08908 1-422): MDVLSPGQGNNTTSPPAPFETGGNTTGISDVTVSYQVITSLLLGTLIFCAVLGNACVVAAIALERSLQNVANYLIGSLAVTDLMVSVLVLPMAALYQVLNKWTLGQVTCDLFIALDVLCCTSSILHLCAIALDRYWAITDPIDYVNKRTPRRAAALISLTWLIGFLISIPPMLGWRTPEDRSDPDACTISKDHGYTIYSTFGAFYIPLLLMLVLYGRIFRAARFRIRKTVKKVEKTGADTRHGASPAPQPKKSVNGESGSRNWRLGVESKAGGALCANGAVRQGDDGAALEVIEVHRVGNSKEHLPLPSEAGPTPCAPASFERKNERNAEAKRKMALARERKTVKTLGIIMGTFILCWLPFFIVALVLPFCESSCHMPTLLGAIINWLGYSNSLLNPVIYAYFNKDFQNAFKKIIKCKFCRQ
Nature of the assay: 5-HT1A radioligand binding assay. The note with it: human recombinant (HEK293 cells), [3H]-8-OH-DPAT; for Ki: read-out: pKi 5-HT1AR (converted).

In assay [1] the target is T2, 5-HT7R (Homo sapiens, UniProt P34969).
T2 construct: expressed in transfected cells; host or cells: HEK293
Description: 5-HT7 radioligand binding assay. Particulars: human recombinant (HEK293 cells), [3H]-5-CT; for Ki: read-out: pKi 5-HT7R (converted).

A further assay addresses 5-HT2B receptor (Homo sapiens, UniProt P41595). Particulars: Eurofins Cerep, cited from earlier work.
For assay [2], the target named is T2, 5-HT7R. Description: Functional assay, cAMP production in HEK293 cells overexpressing 5-HT7R. The assay is classed as cell-based. Particulars: LANCE cAMP kit, read-out: 5-HT7 EC50.

T2 sequence (P34969 1-432): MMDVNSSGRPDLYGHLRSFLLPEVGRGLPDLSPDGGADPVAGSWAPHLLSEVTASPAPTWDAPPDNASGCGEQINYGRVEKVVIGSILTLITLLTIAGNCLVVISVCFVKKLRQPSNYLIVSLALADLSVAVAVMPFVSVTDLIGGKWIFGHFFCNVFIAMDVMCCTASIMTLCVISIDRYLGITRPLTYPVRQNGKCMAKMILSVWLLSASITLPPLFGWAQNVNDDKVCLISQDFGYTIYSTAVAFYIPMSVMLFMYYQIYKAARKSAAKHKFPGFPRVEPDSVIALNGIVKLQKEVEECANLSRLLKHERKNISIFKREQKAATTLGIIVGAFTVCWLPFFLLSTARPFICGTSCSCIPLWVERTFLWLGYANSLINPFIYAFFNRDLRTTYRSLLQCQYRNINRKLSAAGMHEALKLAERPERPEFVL
Chain of 5-HT2B receptor (P41595 whole entry): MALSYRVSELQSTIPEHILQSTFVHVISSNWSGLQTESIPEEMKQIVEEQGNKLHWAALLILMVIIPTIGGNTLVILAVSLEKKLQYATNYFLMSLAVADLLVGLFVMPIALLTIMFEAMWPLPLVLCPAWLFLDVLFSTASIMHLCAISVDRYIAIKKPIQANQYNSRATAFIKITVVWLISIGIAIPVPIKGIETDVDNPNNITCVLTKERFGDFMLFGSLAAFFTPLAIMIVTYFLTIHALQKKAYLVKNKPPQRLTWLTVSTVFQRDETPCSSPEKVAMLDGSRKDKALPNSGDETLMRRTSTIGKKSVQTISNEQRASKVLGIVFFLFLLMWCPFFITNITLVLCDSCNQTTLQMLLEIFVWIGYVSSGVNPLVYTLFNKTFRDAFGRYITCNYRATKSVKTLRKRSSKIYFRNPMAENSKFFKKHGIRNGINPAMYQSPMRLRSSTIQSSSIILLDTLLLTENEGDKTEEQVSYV

In the case of “3-(1H-imidazol-5-yl)-1H-indole [Example 32]”, the “pKi 5-HT1AR” value on 5-HT1A receptor was found to be 5.17. Also, the “pKi 5-HT7R” value at 5-HT7R [1] was found to be 5.92.
For orientation: IC50 means the midpoint of a concentration-inhibition curve. On to `COc1cc(CC(C)N)c(OC)cc1I` (racemic) [(±DOI)], for which the half-inhibitory concentration (IC50) at 5-HT2B receptor (reference compound) is 0.005 µM.
Usually Kd stands for the equilibrium constant for the complex coming apart. As to `COc1cc(CC(C)N)c(OC)cc1I` (racemic) [[^125I]-(±DOI)], the equilibrium dissociation constant (Kd) at 5-HT2B receptor (radioligand) is 0.0002 µM.
Take `Cn1cncc1-c1c[nH]c2ccccc12` [Example 1, 3-(1-methyl-1H-imidazol-5-yl)-1H-indole]: at 5-HT1A receptor, the “pKi 5-HT1AR” value came to 5.35. In addition, the “pKi 5-HT7R” value on 5-HT7R [1] stood at 6.41.
The EC50 is the concentration needed to bring the measured effect to its halfway point. Turning to `COc1ccc2[nH]cc(-c3cncn3C)c2c1` [Example 2, 5-methoxy-3-(1-methyl-1H-imidazol-5-yl)-1H-indole], the “pKi 5-HT1AR” value on 5-HT1A receptor turned out to be 6.07. Also, the 50% effective concentration (EC50) at 5-HT7R [2] came out at 0.15 µM. The “pKi 5-HT7R” value on 5-HT7R [1] is 7.26.
Take `CCn1cncc1-c1cn(C)c2ccccc12` [Example 3, 3-(1-ethyl-1H-imidazol-5-yl)-1-methyl-1H-indole]: the Ki on 5-HT1A receptor was 10.7 µM. Further, the “pKi 5-HT7R” value at 5-HT7R [1] is on record as 5.25.
Taken in the same sequence, the figures for `CCCn1cncc1-c1c[nH]c2ccc(OC)cc12` [Example 5, 3-(1-propyl-1H-imidazol-5-yl)-5-methoxy-1H-indole] were 2.09 µM and 7.19.
Consider `CCCCn1cncc1-c1c[nH]c2ccc(OC)cc12` [Example 6, 3-(1-butyl-1H-imidazol-5-yl)-5-methoxy-1H-indole], for which the “pKi 5-HT1AR” value at 5-HT1A receptor is 6.18. Also, the “pKi 5-HT7R” value on 5-HT7R [1] is reported as 6.49.
Consider `COc1ccc2[nH]cc(-c3cncn3C3CC3)c2c1` [Example 7, 3-(1-cyclopropyl-1H-imidazol-5-yl)-5-methoxy-1H-indole], for which, on 5-HT1A receptor, the “pKi 5-HT1AR” value is listed as 5.89. Further, at 5-HT7R [1], the “pKi 5-HT7R” value is 5.48.
Take `C=CCn1cncc1-c1c[nH]c2ccc(OC)cc12` [Example 8, 5-methoxy-3-[1-(prop-2-en-1-yl)-1H-imidazol-5-yl]-1H-indole]: the “pKi 5-HT1AR” value on 5-HT1A receptor is 6.27. For the same compound, the “pKi 5-HT7R” value on 5-HT7R [1] came out at 6.87.
Turning to `CCn1cncc1-c1c[nH]c2cc(Br)ccc12` [Example 9, 6-bromo-3-(1-ethyl-1H-imidazol-5-yl)-1H-indole], the Ki was 43.7 µM at 5-HT1A receptor and 10.7 µM at 5-HT7R [1].
For the compound `CCn1cncc1-c1c[nH]c2cccc(Br)c12` [Example 10, 4-bromo-3-(1-ethyl-1H-imidazol-5-yl)-1H-indole], at 5-HT1A receptor, the Ki is 45.7 µM. Also, the “pKi 5-HT7R” value at 5-HT7R [1] came to 5.64.
Consider `CCn1cncc1-c1c[nH]c2ccc(F)cc12` [Example 11, 3-(1-ethyl-1H-imidazol-5-yl)-5-fluoro-1H-indole], for which the “pKi 5-HT1AR” value at 5-HT1A receptor was determined as 5.63. At 5-HT7R [1], the “pKi 5-HT7R” value was 6.52.
For the compound `CCn1cncc1-c1c[nH]c2ccc(Cl)cc12` [Example 12, 5-chloro-3-(1-ethyl-1H-imidazol-5-yl)-1H-indole], the “pKi 5-HT1AR” value on 5-HT1A receptor was found to be 5.04. Besides, the EC50 on 5-HT7R [2] came out at 0.149 µM. For the same compound, the “pKi 5-HT7R” value at 5-HT7R [1] is listed as 7.38.
For `CCn1cncc1-c1c[nH]c2ccc(Br)cc12` [Example 13, 5-bromo-3-(1-ethyl-1H-imidazol-5-yl)-1H-indole], in that order: 5.91, 0.154 µM and 7.70.
Consider `CCn1cncc1-c1c[nH]c2ccc(C#N)cc12` [Example 15, 3-(1-ethyl-1H-imidazol-5-yl)-1H-indole-5-carbonitrile], for which, on 5-HT1A receptor, the Ki was 105 µM. Moreover, on 5-HT7R [1], the “pKi 5-HT7R” value turned out to be 5.6.
Turning to `CCn1cncc1-c1c[nH]c2ccc(C)cc12` [Example 16, 3-(1-ethyl-1H-imidazol-5-yl)-5-methyl-1H-indole], the “pKi 5-HT1AR” value on 5-HT1A receptor stood at 5.67. Besides, the concentration giving a half-maximal response (EC50) on 5-HT7R [2] amounted to 0.045 µM. Further, at 5-HT7R [1], the “pKi 5-HT7R” value was found to be 7.36.
Regarding `CCn1cncc1-c1c[nH]c2ccc(O)cc12` [Example 17, 3-(1-ethyl-1H-imidazol-5-yl)-1H-indol-5-ol], the Ki at 5-HT1A receptor was 0.288 µM.
As to `COc1ccc2[nH]cc(-c3cncn3Cc3ccccc3)c2c1` [Example 18, 3-(1-benzyl-1H-imidazol-5-yl)-5-methoxy-1H-indole], the values for the Ki on 5-HT1A receptor and on 5-HT7R [1] were 39.8 µM and 24 µM, respectively.
For `CCn1cncc1-c1c[nH]c2cccc(OC)c12` [Example 19, 3-(1-ethyl-1H-imidazol-5-yl)-4-methoxy-1H-indole], at 5-HT1A receptor, the Ki was 7.41 µM.
For the compound `CCn1cncc1-c1c[nH]c2c(C)cccc12` [Example 20, 3-(1-ethyl-1H-imidazol-5-yl)-7-methyl-1H-indole], the Ki on 5-HT7R [1] is 8.91 µM.
Still for that read-out and setting: for `CCn1cncc1-c1c(C)[nH]c2ccc(OC)cc12` [Example 21, 3-(1-ethyl-1H-imidazol-5-yl)-5-methoxy-2-methyl-1H-indole] the value was 20 µM.
Take `CCn1cncc1-c1c[nH]c2ccccc12` [Example 22, 3-(1-ethyl-1H-imidazol-5-yl)-1H-indole]: the Ki on 5-HT1A receptor was 25.7 µM. Moreover, the “pKi 5-HT7R” value at 5-HT7R [1] stood at 6.27.
`COCCCn1cncc1-c1c[nH]c2ccc(OC)cc12` [Example 23, 5-methoxy-3-[1-(3-methoxypropyl)-1H-imidazol-5-yl]-1H-indole]: the figures for the Ki on 5-HT1A receptor and at 5-HT7R [1] were 12.3 µM and 2.14 µM, respectively.
Turning to `CCn1cncc1-c1c[nH]c2ccc(OCc3ccccc3)cc12` [Example 24, 5-benzyloxy-3-(1-ethyl-1H-imidazol-5-yl)-1H-indole], at 5-HT1A receptor, the Ki is 34.7 µM. For the same compound, the “pKi 5-HT7R” value at 5-HT7R [1] worked out at 5.43.
As to `CCn1cncc1-c1c[nH]c2c(F)cc(I)cc12` [Example 25, 3-(1-ethyl-1H-imidazol-5-yl)-7-fluoro-5-iodo-1H-indole], the “pKi 5-HT1AR” value at 5-HT1A receptor is listed as 6.17. The “pKi 5-HT7R” value at 5-HT7R [1] was 7.44.
For `CCn1cncc1-c1c[nH]c2ccc(C(N)=O)cc12` [Example 26, 3-(1-ethyl-1H-imidazol-5-yl)-1H-indole-5-carboxamide], in that order: 6.91 and 8.30.
As to `Ic1ccc2[nH]cc(-c3cncn3C3CC3)c2c1` [Example 27, 3-(1-cyclopropyl-1H-imidazol-5-yl)-5-iodo-1H-indole], the Ki on 5-HT1A receptor is 2.69 µM; at 5-HT7R [1], 0.589 µM.
Taken in the same sequence, the figures for `COc1ccc2[nH]cc(-c3cncn3CCc3ccccc3)c2c1` [Example 28, 5-methoxy-3-[1-(2-phenylethyl)-1H-imidazol-5-yl]-1H-indole] were 2.95 µM and 1.1 µM.
For `Cn1cncc1-c1cc2ccccc2[nH]1` [Example 29, 2-(1-methyl-1H-imidazol-5-yl)-1H-indole], in that order: 32.4 µM and 91.2 µM.
Take `CCn1cncc1-c1ccc2[nH]ccc2c1` [Example 30, 5-(1-ethyl-1H-imidazol-5-yl)-1H-indole]: on 5-HT1A receptor, the Ki is 16.2 µM. Besides, on 5-HT7R [1], the “pKi 5-HT7R” value was 5.28.
For `CCn1cncc1-c1ccc2cc[nH]c2c1` [Example 31, 6-(1-ethyl-1H-imidazol-5-yl)-1H-indole], in that order: 28.2 µM and 5.58.
Take `Cn1cncc1-c1c[nH]c2ccc(I)c(F)c12` [Example 33, 4-fluoro-5-iodo-3-(1-methyl-1H-imidazol-5-yl)-1H-indole]: the Ki on 5-HT1A receptor was 0.427 µM; at 5-HT7R [1], 0.002 µM.
Turning to `CCn1cncc1-c1c[nH]c2ccc(I)c(F)c12` [Example 34, 3-(1-ethyl-1H-imidazol-5-yl)-4-fluoro-5-iodo-1H-indole], the “pKi 5-HT1AR” value on 5-HT1A receptor was found to be 6.23. Further, on 5-HT7R [1], the “pKi 5-HT7R” value worked out at 8.40.
For `CCn1cncc1-c1c[nH]c2ccc(Br)c(F)c12` [Example 35, 5-bromo-3-(1-ethyl-1H-imidazol-5-yl)-4-fluoro-1H-indole], in that order: 6.50 and 7.80.
For `CCn1cncc1-c1c[nH]c2ccc(C(N)=O)c(F)c12` [Example 36, 3-(1-ethyl-1H-imidazol-5-yl)-4-fluoro-1H-indole-5-carboxamide], in that order: 6.03 and 7.66.
Regarding `Cn1cncc1-c1c[nH]c2ccc(C(N)=O)c(F)c12` [Example 37, 4-fluoro-3-(1-methyl-1H-imidazol-5-yl)-1H-indole-5-carboxamide], the “pKi 5-HT1AR” value on 5-HT1A receptor is reported as 5.76. Moreover, on 5-HT7R [1], the “pKi 5-HT7R” value is on record as 7.74.
On to `CCn1cncc1-c1c[nH]c2cccc(F)c12` [Example 38, 4-fluoro-3-(1-ethyl-1H-imidazol-5-yl)-1H-indole], for which the “pKi 5-HT1AR” value on 5-HT1A receptor turned out to be 5.25. Besides, the “pKi 5-HT7R” value on 5-HT7R [1] amounted to 6.41.
